Experimental findings from patent US6703213B2, “Substrate analogs for MurG, methods of making same and assays using same” (The Trustees of Princeton University, priority 1998, dated 2004) are described below.

This experiment addresses T1, wild type E. coli MurG (Escherichia coli, UniProt P17443).
T1 construct: made in house; host or cells: E. coli BL21(DE3)pLysS, pET3a vector
The experiment can be described thus: Initial rate assays with purified, soluble enzyme. Particulars: rapid equilibrium sequential mechanism assumed; 0.08 μM purified MurG; UDP-GlcNAc as varied substrate. In kind it is biochemical. The method, then:
The following solutions are prepared prior to the assays: 1) 177.3 μM [^14C]-UDP-GlcNAc in H2O (0.05 mCi/mL); 2) 1.5 mM UDP-GlcNAc in H2O; 3) biotinylated Lipid I analog (1b) at 0.5 μg/μL; 4) 10×reaction buffer containing 50 mM HEPES (pH 7.9) and 5 mM MgCl2. The enzyme stock is prepared by diluting the purified enzyme with TBSE to a final concentration of 0.04 μg/μL in a 0.5 mL tube and storing at 4° C. for two days prior to running the assays.
Thirty reactions are prepared by individually mixing 2 μL of 10×reaction buffer with an appropriate amount of biotinylated Lipid I analog (1b), radioactive UDP-GlcNAc, nonradioactive UDP-GlcNAc, and H2O to a final volume of 18 μl. The final concentration for the Lipid I analog (1b) are 7 μM, 10 μM, 15 μM, 30 μM, 100 μM, and for UDP-GlcNAc 11 μM, 15 μM, 20 μM, 40 μM, 100 μM, 200 μM. Reactions are initiated by adding 2 μL of the enzyme stock and are run for 4 minutes at 24° C. Reactions are stopped by adding 10 μl of 1% (w/v) SDS.
Deionized H2O is added to each tube to a final volume of approximately 250 μL and the suspension is transferred to a […] 96-well filter plate fitted to a vacuum-line fitted MultiScreen Assay System (Millipore). The resin is washed 15 times with 0.2 mL deionized H2O. […] Samples are counted immediately on a Beckman LS5000 scintillation counter.

T1 sequence (P17443 whole entry): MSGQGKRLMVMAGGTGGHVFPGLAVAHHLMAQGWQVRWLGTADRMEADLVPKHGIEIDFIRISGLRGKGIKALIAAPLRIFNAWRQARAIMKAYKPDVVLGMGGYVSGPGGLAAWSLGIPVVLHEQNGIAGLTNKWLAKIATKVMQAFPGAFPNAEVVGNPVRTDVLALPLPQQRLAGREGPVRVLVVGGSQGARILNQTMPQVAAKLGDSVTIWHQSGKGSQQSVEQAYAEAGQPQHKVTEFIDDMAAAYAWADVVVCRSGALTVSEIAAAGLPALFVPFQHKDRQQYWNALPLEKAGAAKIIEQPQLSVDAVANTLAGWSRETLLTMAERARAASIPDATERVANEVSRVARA

With `CC(=O)N[C@H]1[C@@H](OP(=O)(O)OP(=O)(O)OC[C@H]2O[C@@H](n3ccc(=O)[nH]c3=O)[C@H](O)[C@@H]2O)O[C@H](CO)[C@@H](O)[C@@H]1O` [UDP-GLCNAC, UDP-N-acetylglucosamine], the KUDP-GLCNAC amounted to 110 µM.
